# pEC50: −log10 of the molar value. Active and inactive are the calls of the source. How the calls were made is not given here.
# Tested on: OPRD1 counterscreen cells, luminescence, activation
# Assay: OPRD1 cell luminescence activation counter-screen – dose response, counter-screen for OPRM1-OPRD1 heterodimer activator project, late-stage follow-up (AID 651686)
SMILES,pEC50,EC50
CCOC(=O)C1(CCc2ccccc2)CCN(Cc2ccc(NC(C)=O)cc2)CC1,5.96,–
CCOC(=O)C1(CCc2ccccc2)CCN(Cc2ccc(OC(C)C)c(C#N)c2)CC1,–,> 40 µM (inactive)
CCOC(=O)C1(CC2CCCCO2)CCN(Cc2c(C)cc(C)cc2-n2cccn2)CC1 (stereo unspecified),–,> 40 µM (inactive)
CCOC(=O)C1(CCc2ccccc2)CCN(Cc2ccccc2C)CC1,–,> 40 µM (inactive)
CCOC(=O)C1(CCCc2ccccc2)CCN(Cc2cnn(C)c2)CC1,–,> 40 µM (inactive)
CCOC(=O)C1(Cc2ccccc2)CCN(Cc2cccn2-c2nccs2)CC1,–,> 40 µM (inactive)
OCC1(CCc2ccccc2)CCN(Cc2cc(F)ccc2-n2cccn2)CC1,–,> 40 µM (inactive)
CCOC(=O)C1(Cc2ccccc2)CCN(Cc2cccn2-c2cccnc2)CC1,–,> 40 µM (inactive)
CCOC(=O)C1(CCOc2ccccc2)CCN(Cc2cccn2-c2cccnc2)CC1,–,> 40 µM (inactive)
CCOC(=O)C1(CCOc2ccccc2)CCN(Cc2ccc(O)c(OC)c2)CC1,–,> 40 µM (inactive)
CCOC(=O)C1(CCc2ccccc2)CCN(Cc2cc(C)cc(C)c2)CC1,–,> 40 µM (inactive)

# From PubChem BioAssay AID651686 (The Scripps Research Institute Molecular Screening Center, 2012)
